Test results from article PMC7083565, “In vitro metabolism, reaction phenotyping, enzyme kinetics, CYP inhibition and induction potential of ataluren” (Pharmacology Research & Perspectives, 2020).

Legend:
CYP2C8 = molecular target: T1, CYP2C8 (Homo sapiens, UniProt P10632); assay: CYP inhibition in pooled human liver microsomes: CYP2C8; type: in vitro ADME
T1 construct: tissue XenoTech LLC, Celsis-In Vitro Technologies, or Tissue Transformation Technologies; host or cells: pooled human liver microsomes
T1 sequence (P10632 1-490): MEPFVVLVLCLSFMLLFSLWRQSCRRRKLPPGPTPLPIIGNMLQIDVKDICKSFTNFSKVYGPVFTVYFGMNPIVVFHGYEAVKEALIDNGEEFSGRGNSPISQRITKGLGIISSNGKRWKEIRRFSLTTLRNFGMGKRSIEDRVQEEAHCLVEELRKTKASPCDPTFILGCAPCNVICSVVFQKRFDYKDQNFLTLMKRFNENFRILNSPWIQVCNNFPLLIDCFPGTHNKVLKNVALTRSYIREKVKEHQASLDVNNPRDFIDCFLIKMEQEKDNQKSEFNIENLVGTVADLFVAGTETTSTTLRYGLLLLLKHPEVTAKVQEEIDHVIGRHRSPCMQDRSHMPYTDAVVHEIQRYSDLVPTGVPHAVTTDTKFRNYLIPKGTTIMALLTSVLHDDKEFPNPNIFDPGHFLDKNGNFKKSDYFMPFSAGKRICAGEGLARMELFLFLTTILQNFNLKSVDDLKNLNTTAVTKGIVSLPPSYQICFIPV
Experimental: The final concentration of each probe substrate was near the experimentally determined Km value for the indicated enzyme. Ataluren or prototypical CYP inhibitors (positive controls) was incubated (n = 3) with probe substrates and HLM in 100 mmol/L phosphate buffer (pH 7.4) in a total volume of approximately 0.25 mL, and the reactions were initiated by the addition of 1 mmol/L NADPH at 37°C. The reactions were carried out using previously established conditions to ensure linearity with respect to protein concentration and incubation time (Table S1). Incubations were stopped with the addition of ice‐cold acetonitrile. Metabolite formation in incubations with test compound and control inhibitors was assessed with LC‐MS/MS methods for each of the reaction products as described in Table S2. […] After 7 minutes incubation at 37°C, the reaction was stopped by the addition of ice‐cold acetonitrile, followed by membrane plate filtration. The filtrates were used for LC‐MS/MS analysis. Enzyme activity remaining at each nonzero ataluren concentration after incubation was normalized against control sample (zero ataluren concentration, enzyme activity = 100%), and the % remaining enzyme activity values were used for IC50 calculation. IC50 values were determined by nonlinear regression with GraphPad Prism 5 using the following four‐parameter sigmoidal‐logistic IC50 equation: Fit=background+range-background/[1+I/IC50^slope]
Where, I is the inhibitor concentration, and background was set to 0 and range to 100, as percent of control values are utilized. K i was determined by nonlinear regression with GraphPad Prism 5 using best fit model.

CYP2C9 = assay: CYP induction in primary human hepatocytes: CYP2C9; type: in vitro ADME; conditions: male, 48 h
Experimental: Human hepatocytes isolated from three Caucasian males were transferred to 48‐well collagen‐coated plates at 0.14 × 10^6 cells/well in planting media for attachment. After attachment, planting media was replaced with sandwich media and the cells were incubated until clusters were established. […] The incubation solutions were aspirated and replaced with freshly prepared incubation solutions containing ataluren for an additional 24 hours. […] The incubation solutions were then aspirated and 150 µL of K‐H buffer containing CYP substrates were added. The hepatocytes were incubated for 30 minutes for CYP2C8 (10 µmol/L amodiaquine), 1 hour for CYP3A4 (125 µmol/L testosterone), and 4 hours for CYPs 1A2 (100 µmol/L phenacetin), 2A6 (100 µmol/L coumarin), 2B6 (150 µmol/L bupropion), 2C9 (50 µmol/L tolbutamide), 2C19 (100 µmol/L S‐mephenytoin), and 2E1 (300 µmol/L chlorzoxazone) activity assays. The reactions were stopped by the addition of 0.15 mL of ice‐cold methanol except that coumarin‐treated cells were incubated with β‐glucuronidase and aryl sulfatase for additional 1 hour to free 7‐hydroxycoumarin before the addition of 0.2 mL of ice‐cold methanol. Metabolite formation in incubations with test compounds and control inhibitors was assessed with validated LC‐MS/MS methods for each of the reaction products as described in Table S2. Enzymatic activity for each CYP was calculated using the absolute amount of metabolite formed (pmol) divided by hepatocytes in the incubation (million cells) and the incubation time (minute). The relative fold induction in enzymatic activity was calculated by comparing the rate of metabolite formation for treatment groups to that of the solvent control group (reported as vehicle control%) or positive control group (reported as positive control%).

[1] = Steady-state plasma Cmax in DMD patients; type: in vivo, human

Q: Which IC50 (CYP2C8; Amodiaquine N-deethylase, pooled HLM, n=3, (95% confidence interval)) does the source give for `O=C(O)c1cccc(-c2noc(-c3ccccc3F)n2)c1` [ataluren, Ataluren] here?
A: The IC50 was 163 µM.

Q: And the mechanism of inhibition (CYP2C8; CYP2C8, amodiaquine N-deethylase)?
A: The mechanism of inhibition was “noncompetitive inhibitor”.

Q: What about the Ki (CYP2C8; CYP2C8, noncompetitive, mean ± SE, n = 3) of the same molecule?
A: Its Ki is 169 ± 6.19 µM.

Q: And the IC50 (CYP2C8; human, pooled human liver microsomes, pH 7.4, CYP2C8, HLM)?
A: Its IC50 is 165 µM.

Q: What about the “Vehicle control %, Mean” value (CYP2C9; 4 µM) of the same molecule?
A: The value was 100%.

Q: And the “Vehicle control %, Mean” value (CYP2C9; 400 µM)?
A: The value was 146%.

Q: What about the “induction over vehicle control, CYP2C9 activity” value (CYP2C9; hepatocytes, 400 µmol/L) of the same molecule?
A: The value was roughly 1.5 fold.

Q: What about the “free Cmax at the steady state” value ([1]; conservative, assuming free fraction value of 1%) of the same molecule?
A: Its value is roughly 800 nM.

Q: And the “free Cmax at the steady state” value ([1]; using free fraction value of 0.4% as measured)?
A: The value was “around 0.32 µmol/L”.
